Source: US10966426B2, “Herbicidal compositions comprising phenylpyrimidines” (BASF SE, priority 2016, dated 2021)

Experiments:
Assay type in all cases: in vivo
Brachiaria decumbens = test: greenhouse pre-emergence treatment, BRADC; details: BRADC, 20 DAT; for % activity: clomazone solo (CS 360 g/l)
Summary of the method: (§1)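 Seeds were sown per species in pots of loamy sand with about 3.0% humus, sprayed with the aqueous spray liquor directly after sowing, watered and hooded until rooted, then kept at 10-25° C. or 20-35° C. for 2 to 4 weeks. Damage was scored 0 (none) to 100 (no emergence/complete destruction).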

Ambrosia elatior = test: greenhouse pre-emergence treatment, AMBEL; details: AMBEL, 20 DAT; for % activity: clomazone solo (CS 360 g/l)
Summary of the method: as §1

Lolium multiflorum = test: greenhouse pre-emergence treatment, LOLMU; details: Lolium multiflorum, 480 h, read-out: % activity
Description: (§2) The culture containers used were plastic pots containing loamy sand with approximately 3.0% of humus as substrate. The seeds of the test plants were sown separately for each species.
(§3) For the pre-emergence treatment, the active compounds, suspended or emulsified in water, were applied directly after sowing by means of finely distributing nozzles. The containers were irrigated gently to promote germination and growth and subsequently covered with transparent plastic hoods until the plants had rooted. This cover caused uniform germination of the test plants unless this was adversely affected by the active compounds.
(§4) Depending on the species, the plants were kept at 10-25° C. and 20-35° C., respectively.
(§5) The test period extended over 2 to 4 weeks. During this time, the plants were tended and their response to the individual treatments was evaluated.
(§6) Evaluation was carried out using a scale from 0 to 100. 100 means no emergence of the plants, or complete destruction of at least the above-ground parts, and 0 means no damage or normal course of growth. A good herbicidal activity is given at values of at least 70, and very good herbicidal activity is given at values of at least 85.
(§7) The respective stated components A and B, and if appropriate, C were formulated as a 10% by weight strength emulsion concentrate and, with addition of the amount of solvent system, introduced into the spray liquor used for applying the active compound. In the examples, the solvent used was water.
(§8) In the examples below, using the method of S. R. Colby (1967) “Calculating synergistic and antagonistic responses of herbicide combinations”, Weeds 15, p. 22ff., the value E, which is expected if the activity of the individual active compounds is only additive, was calculated. E=X+Y−(X·Y/100) where X=effect in percent using herbicide A at an application rate a; • Y=effect in percent using herbicide B at application rate b; • E=expected effect (in %) of herbicide A+herbicide B at application rates a+b.

Alopecurus myosuroides = test: greenhouse pre-emergence treatment, ALOMY; details: clomazone solo (CS 360 g/l), 30 gai/ha, 20 DAT
Description: as §2, §3, §4, §5, §6, §7, §8

Apera spica-venti = test: greenhouse pre-emergence treatment, APESV; details: clomazone solo (CS 360 g/l), 20 DAT
Description: as §2, §3, §4, §5, §6, §7, §8

Polygonum convolvulus = test: greenhouse pre-emergence treatment, POLCO; details: Fallopia convolvulus, 480 h, read-out: % activity
Description: as §2, §3, §4, §5, §6, §7, §8

Echinocloa crus-galli = test: greenhouse pre-emergence treatment, ECHCG; details: clomazone solo (CS 360 g/l), 120 gai/ha, 20 DAT
Description: as §2, §3, §4, §5, §6, §7, §8

Helianthus annuus = test: greenhouse pre-emergence treatment, HELAN; details: Helianthus annuus, 480 h, read-out: % activity
Summary of the method: as §1

Galium aparine = test: greenhouse pre-emergence treatment, GALAP; details: Galium aparine, 480 h, read-out: % activity
Description: as §2, §3, §4, §5, §6, §7, §8

Avena fatua = test: greenhouse pre-emergence treatment, AVEFA; details: Avena fatua, 480 h, read-out: % activity
Summary of the method: as §1

Bromus sterilis = test: greenhouse pre-emergence treatment, BROST; details: Bromus sterilis, 480 h, read-out: % activity
Summary of the method: as §1

Digitaria sanguinalis = test: greenhouse pre-emergence treatment, DIGSA
Description: as §2, §3, §4, §5, §6, §7, §8

Setaria viridis = test: greenhouse pre-emergence treatment, SETVI; details: SETVI, 20 DAT
Description: as §2, §3, §4, §5, §6, §7, §8

Poa annua = test: greenhouse pre-emergence treatment, POAAN; details: clomazone solo (CS 360 g/l), 20 DAT
Description: as §2, §3, §4, §5, §6, §7, §8

CC1(C)CON(Cc2ccccc2Cl)C1=O [clomazone]
pest or weed control at 15 g/ha (Brachiaria decumbens; Urochloa decumbens, 480 h, solo clomazone (CS 360 g/l) 15 gai/ha): 0%
pest or weed control at 30 g/ha (Brachiaria decumbens; Urochloa decumbens, 480 h, solo clomazone (CS 360 g/l) 30 gai/ha): 0%
pest or weed control at 60 g/ha (Brachiaria decumbens; Urochloa decumbens, 480 h, solo clomazone (CS 360 g/l) 60 gai/ha): 0%
pest or weed control at 120 g/ha (Brachiaria decumbens; Urochloa decumbens, 480 h, solo clomazone (CS 360 g/l) 120 gai/ha): 30%
% activity (Brachiaria decumbens; 30 gai/ha): 0%
% activity (Brachiaria decumbens; 60 gai/ha): 0%
% activity (Brachiaria decumbens; 120 gai/ha): 30%
pest or weed control at 15 g/ha (Ambrosia elatior; Ambrosia artemisiifolia, 480 h, solo clomazone (CS 360 g/l) 15 gai/ha): 0%
pest or weed control at 60 g/ha (Ambrosia elatior; Ambrosia artemisiifolia, 480 h, solo clomazone (CS 360 g/l) 60 gai/ha): 10%
pest or weed control at 120 g/ha (Ambrosia elatior; Ambrosia artemisiifolia, 480 h, solo clomazone (CS 360 g/l) 120 gai/ha): 10%
pest or weed control at 1250 g/ha (Ambrosia elatior; Ambrosia artemisiifolia, 480 h, solo clomazone (CS 360 g/l) 1250 gai/ha): 10%
% activity (Ambrosia elatior; 60 gai/ha): 10%
% activity (Ambrosia elatior; 120 gai/ha): 10%
pest or weed control at 60 g/ha (Lolium multiflorum): 40%
pest or weed control at 120 g/ha (Lolium multiflorum): 60%
% activity (Alopecurus myosuroides): 0%
% activity (Apera spica-venti; 15 gai/ha): 20%
% activity (Apera spica-venti; 120 gai/ha): 65%
pest or weed control at 60 g/ha (Polygonum convolvulus): 60%
pest or weed control at 120 g/ha (Polygonum convolvulus): 75%
% activity (Echinocloa crus-galli): 90%
plant injury at 30 g/ha (Helianthus annuus): 10%
pest or weed control at 30 g/ha (Galium aparine): 80%
pest or weed control at 30 g/ha (Avena fatua): 0%
pest or weed control at 30 g/ha (Bromus sterilis): 0%
pest or weed control at 120 g/ha (Bromus sterilis): 30%
pest or weed control at 60 g/ha (Digitaria sanguinalis; Digitaria sanguinalis, 480 h, DIGSA, 20 DAT, solo clomazone (CS 360 g/l) 60 gai/ha): 0%
pest or weed control at 120 g/ha (Digitaria sanguinalis; Digitaria sanguinalis, 480 h, DIGSA, 20 DAT, solo clomazone (CS 360 g/l) 120 gai/ha): 30%
pest or weed control at 15 g/ha (Digitaria sanguinalis; Digitaria sanguinalis, 480 h, read-out: % activity): 0%
% activity (Digitaria sanguinalis; clomazone solo (CS 360 g/l), 120 gai/ha, 20 DAT, DIGSA): 30%
% activity (Setaria viridis; solo clomazone (CS 360 g/l) 30 gai/ha): 0%
% activity (Setaria viridis; clomazone solo (CS 360 g/l), 60 gai/ha): 30%
% activity (Setaria viridis; clomazone solo (CS 360 g/l), 120 gai/ha): 65%
% activity (Setaria viridis; clomazone solo (CS 360 g/l), 125 gai/ha): 65%
% activity (Poa annua; 15 gai/ha): 0%
% activity (Poa annua; 30 gai/ha): 0%
% activity (Poa annua; 60 gai/ha): 30%
% activity (Poa annua; 120 gai/ha): 80%
